According to patent US11186547B2, “High-purity quinoline derivative and method for manufacturing same” (Eisai R&D Management Co., Ltd., priority 2014, dated 2021):
Each block holds one molecule with its values, some of them ahead of it.

Columns and labels:
[1] = solubility in organic solvents; format: physicochemical
Text: (§1) The compound (A-1) is the starting material of the step A, but its solubility in organic solvents is low.

[2] = genotoxicity, consideration of the present inventors; details: according to the consideration of the present inventors
Text: as §1

[3] = Workplace Safety Site, Public Notice No. 166 of Mar. 27, 2012; cited from earlier work
[4] = decomposition on heating after dissolution in a solvent; format: physicochemical; details: heated after dissolved in a solvent

- solubility in organic solvents [1]: low
SMILES: COc1cc2nccc(Cl)c2cc1C(N)=O [compound (A-1), 4-chloro-7-methoxy-quinoline-6-carboxamide]
- genotoxicity [2]: possibility that the compound (A-1) exhibits genotoxicity

SMILES: COc1cc2nccc(Oc3ccc(N)c(Cl)c3)c2cc1C(N)=O [compound (I), 4-(4-Amino-3-chlorophenoxy)-7-methoxy-quinoline-6-carboxamide]
- mutagenicity [3]: strong mutagenicity was recognized

SMILES: COc1cc2nccc(Oc3ccc(NC(=O)NC4CC4)c(Cl)c3)c2cc1C(N)=O [methanesulfonate of the compound (IV), 4-[3-chloro-4-(cyclopropylaminocarbonyl)aminophenoxy]-7-methoxy-6-quinoline-carboxamide Methanesulfonate]
- decomposition product formed [4]: the compound (I) is formed as a decomposition product
